Laboratory results taken from ChEMBL document CHEMBL1124348, “Synthesis and biological evaluation of substituted benzo[h]cinnolinones and 3H-benzo[6,7]cyclohepta[1,2-c]pyridazinones: higher homologues of the antihypertensive and antithrombotic 5H-indeno[1,2-c]pyridazinones” (J Med Chem, 1989).
The source made the active and inactive calls. No cut-off for these calls is given here.

Assays:
[1] = Lethal dose in mouse was determined by administering perorally; type: toxicity, organism-based; conditions: in vivo, po
Rattus norvegicus [2] = experiment: Antihypertensive activity in hypertensive rats, after peroral administration that lowered the blood pressure by 50 mmHg; type: functional; conditions: po
[3] = (§1) Lethal dose in mouse by administering compound intraperitoneally; type: toxicity, organism-based; conditions: in vivo, ip
Mus musculus [4] = experiment: Antithrombotic activity in mouse when administered a dose of 20 mg/kg perorally; type: functional; conditions: route oral
Cavia porcellus [5] = species: Cavia porcellus; experiment: Inotropic activity against guinea pig spontaneously beating atria; type: functional
Rattus norvegicus [6] = experiment: Variation in heart rate when 25 mg/kg administered orally in rats; type: functional; conditions: route oral
Rattus norvegicus [7] = experiment: Antihypertensive activity in hypertensive rats, after peroral administration that lowered the blood pressure by 50 mmHg; value ranges from 3.50 to 4.80; type: functional; conditions: po
Rattus norvegicus [8] = species: Rattus norvegicus; experiment: Antihypertensive action versus dihydralazine; type: functional
Cavia porcellus [9] = species: Cavia porcellus; experiment: In vitro inhibitory activity of collagen (0.8 ug/mL)-induced platelet aggregation in guinea pig platelet rich plasma at a dose of 0.8 ug/mL; type: functional
Cavia porcellus [10] = species: Cavia porcellus; experiment: In vitro irreversible inhibitory activity of adenosine diphosphate (0.5 uM)-induced platelet aggregation in guinea pig platelet rich plasma; type: functional
Cavia porcellus [11] = species: Cavia porcellus; experiment: In vitro reversible inhibitory activity of adenosine diphosphate (0.5 uM)-induced platelet aggregation in guinea pig platelet rich plasma; type: functional
Cavia porcellus [12] = species: Cavia porcellus; experiment: In vitro inhibitory activity of thrombin (0.625 IU/mL)-induced platelet aggregation in guinea pig platelet rich plasma after 4 min; type: functional
Cavia porcellus [13] = species: Cavia porcellus; experiment: In vitro inhibitory activity of thrombin (0.625 IU/mL)-induced platelet aggregation in guinea pig platelet rich plasma after 2 min; type: functional
[14] = divya_inp96 Lethal dose in mouse by administering compound intraperitoneally; type: toxicity, organism-based; conditions: in vivo, ip
Cavia porcellus [15] = species: Cavia porcellus; experiment: Inhibitory activity of thrombin (0.625 IU/mL)-induced platelet aggregation in guinea pig platelet rich plasma after 2 min; type: functional
Mus musculus [16] = experiment: as §1; type: toxicity, organism-based; conditions: in vivo, ip
Rattus norvegicus [17] = experiment: Antihypertensive activity in hypertensive rats, after peroral administration that lowered the blood pressure by 50 mmHg; Valure ranges from 1.67 to 5.40; type: functional; conditions: po
Rattus norvegicus [18] = experiment: Antihypertensive activity in hypertensive rats, after peroral administration that lowered the blood pressure by 50 mmHg; value ranges from 0.52 to 4.88; type: functional; conditions: po
Rattus norvegicus [19] = experiment: Antihypertensive activity in hypertensive rats, after peroral administration that lowered the blood pressure by 50 mmHg; value ranges from 6.52 to 14.62; type: functional; conditions: po
Rattus norvegicus [20] = experiment: Antihypertensive activity in hypertensive rats, after peroral administration that lowered the blood pressure by 50 mmHg; value ranges from 2.50 to 6.50; type: functional; conditions: po
Mus musculus [21] = experiment: Antithrombotic activity in mouse when administered a dose of 20 mg/kg perorally; NA means inactive; type: functional, organism-based; parameters: dose 20 mg/kg
Rattus norvegicus [22] = experiment: divya_inp96 Antihypertensive activity in hypertensive rats, after peroral administration that lowered the blood pressure by 50 mmHg; type: functional; conditions: po
Cavia porcellus [23] = species: Cavia porcellus; experiment: In vitro reversible inhibitory activity of adenosine diphosphate (0.5 uM)-induced platelet aggregation in guinea pig platelet rich plasma; NA means inactive; type: functional
Cavia porcellus [24] = species: Cavia porcellus; experiment: In vitro irreversible inhibitory activity of adenosine diphosphate (0.5 uM)-induced platelet aggregation in guinea pig platelet rich plasma; NA means inactive; type: functional

SMILES | LD50 [1] [mg/kg] | LD50 [3] [mg/kg] | Protection (Mus musculus [4]) [%] | pD2 (Cavia porcellus [5]) | Peak effect (Rattus norvegicus [6]) | Relative activity (Rattus norvegicus [8]) | Inhibition (Cavia porcellus [9]) [%] | Inhibition (Cavia porcellus [10]) [%] | Inhibition (Cavia porcellus [11]) [%] | Inhibition (Cavia porcellus [12]) [%] | Inhibition (Cavia porcellus [13]) [%] | also measured
Oc1cc2c(nn1)-c1ccccc1CC2 | > 1000 | 707 | 33 | 4.74 | -35 |  |  |  |  |  |  | ED50 (Rattus norvegicus [2]): > 25 mg/kg
CC(=O)Nc1ccc2c(c1)CC1CC(=O)NN=C21 (stereo not given) |  |  |  | 5.95 | 53 | 0.58 |  |  |  |  |  | ED50 (Rattus norvegicus [7]): 7.1 mg/kg
CC(=O)Nc1ccc2c(c1)CCCC1CC(=O)NN=C21 (stereo not given) | > 1000 | > 1000 | 46 |  |  |  |  |  |  |  |  | 
Cn1c(=O)c2[nH]cnc2n(C)c1=O.Cn1c(=O)c2[nH]cnc2n(C)c1=O.NCCN [AMINOPHYLLINE] |  |  |  | 5.91 |  |  |  |  |  |  |  | 
Nc1ccc2c(c1)CCCC1CC(=O)NN=C21 (stereo not given) | 700 | 483 | 45 |  |  |  |  |  |  |  |  | 
O=C1CC2CCc3ccccc3C2=NN1 (stereo not given) | 666 | 450 | 59 | 4.98 | 70 |  | 100 | 95 | 30 | 97 | 84 | ED50 (Rattus norvegicus [2]): 23.5 mg/kg
CC(=O)Oc1ccccc1C(=O)O [ASPIRIN] | > 1000 |  | 44 |  |  |  | 75 | 100 | 0 | 0 |  | LD50 [14]: 6500 mg/kg; Inhibition (Cavia porcellus [15]): 0%
CC(=O)Nc1ccc2c(c1)CCC1CC(=O)NN=C21 (stereo in doubt; (-)-3c) |  |  |  |  |  |  | 10 | 76 | 37 | 63 | 62 | Protection (Mus musculus [4]; 20 mg/kg): 84%
CC(=O)Nc1ccc2c(c1)CCC1CC(=O)NN=C21 (racemic) | > 1000 |  |  | 5.54 |  | 1.32 | 47 | 92 | 47 | 66 | 65 | LD50 (Mus musculus [16]): 460 mg/kg; Protection (Mus musculus [4]; 20 mg/kg): 100%; Peak effect (Rattus norvegicus [6]; 25 mg/kg): 90; ED50 (Rattus norvegicus [17]): 3.1 mg/kg
CC(=O)Nc1ccc2c(c1)CCC1CC(=O)NN=C21 (single isomer, unassigned; (+)) |  |  |  | 5.65 |  | 1.95 | 2 | 77 | 36 | 100 | 91 | LD50 (Mus musculus [16]): > 1000 mg/kg; Protection (Mus musculus [4]; 20 mg/kg): 89%; Peak effect (Rattus norvegicus [6]; 25 mg/kg): 55; ED50 (Rattus norvegicus [18]): 2.1 mg/kg
Nc1ccc2c(c1)CC1CC(=O)NN=C21 (stereo not given) |  |  |  | 5.05 | 49 | 0.37 |  |  |  |  |  | ED50 (Rattus norvegicus [19]): 11 mg/kg
CC(Cl)C(=O)Nc1ccc2c(c1)CCC1CC(=O)NN=C21 (stereo not given) | > 1000 | > 1000 | 33 |  |  |  |  |  |  |  |  | 
Nc1ccc2c(c1)CCC1CC(=O)NN=C21 (stereo not given) | > 1000 | 611 | 73 | 4.93 | 90 | 1.17 | 21 | 42 | 10 | 27 | 13 | ED50 (Rattus norvegicus [20]): 3.5 mg/kg
N#Cc1ccc2c(c1)CCC1CC(=O)NN=C21 (stereo not given) | > 1000 | 560 |  |  |  |  |  |  |  |  |  | Protection (Mus musculus [21]): inactive
N/N=c1\[nH][nH]/c(=N\N)c2ccccc12 [DIHYDRALAZINE] |  |  |  |  | 68 | 1 |  |  |  |  |  | ED50 (Rattus norvegicus [22]): 64.1 mg/kg
CC(=O)Nc1cccc2c1CCC1CC(=O)NN=C21 (stereo not given) | > 1000 | 378 |  |  |  |  |  |  |  |  |  | inhibition (Cavia porcellus [23]): inactive; inhibition (Cavia porcellus [24]): inactive; Protection (Mus musculus [21]): inactive
CC(=O)Nc1ccc2c(c1)CCc1cc(O)nnc1-2 | > 1000 | 651 | 55 | 5.77 | 50 | 1.14 | 6 | 95 | 40 | 86 | 81 | ED50 (Rattus norvegicus [2]): 3.6 mg/kg
CC(=O)Nc1ccc2c(c1)C1=NNC(=O)CC1CC2 (stereo not given) | > 1000 | > 1000 | 25 |  |  |  | 62 | 6 | 0 | 14 | 17 | 
